Read-outs that look alike come from different tables or passages of the source.
What was measured:
[1] = cited from earlier work
Source text: Carfilzomib, an epoxyketone proteasome inhibitor, is approved in the United States (US), Canada, Australia, European Union (EU), and other jurisdictions for the treatment of relapsed or refractory multiple myeloma. […] Following intravenous (IV) administration, carfilzomib is rapidly and extensively metabolized in patients with multiple myeloma or solid tumors. Similar to the metabolic profile in rats and monkeys, ...

[2] = tested on: patients with relapsed multiple myeloma; assay: Best overall response as determined by investigator (IMWG / EBMT criteria), DOR and PFS; type: in vivo, human; conditions: for Best overall response: Minimal response / Best overall response: Complete response / Best overall response: Not evaluable / Best overall response: Partial response / Best overall response: Progressive disease / Best overall response: Stable disease / Best overall response: Stringent complete response / Best overall response: Very good partial response / Clinical benefit rate (95% CI), minimal response or better / Overall response rate (95% CI), partial response or better: response-evaluable, carfilzomib 20/27/56 mg/m^2 IV; for Best overall response: Minimal response: EBMT criteria
Protocol: (§1) This was a phase I, multicenter (13 sites in US, Canada, and Australia), open-label, nonrandomized, comparative PK study of carfilzomib in patients with multiple myeloma and normal renal function or ESRD on hemodialysis (NCT01949532). The primary objective was to assess the influence of ESRD on AUC, from time 0 to the last concentration measured (AUC0−last) and from time 0 extrapolated to infinity (AUC0−inf) of carfilzomib 56 mg/m^2 at cycle 2 day 1 in patients with relapsed multiple myeloma. Secondary objectives were to compare between patient cohorts additional PK parameters of carfilzomib at cycle 2 day 1, including C max, time to maximum concentration (t max), clearance, terminal half-life (t 1/2), volume of distribution at steady state, and mean residence time; compare between patient cohorts PK parameters of carfilzomib 27 mg/m^2 at cycle 1 day 16; evaluate PK parameters for carfilzomib’s major metabolites (PR-389/M14, PR-413/M15, and PR-519/M16) to help characterize metabolism and elimination profile of carfilzomib; and evaluate the safety and tolerability of carfilzomib. Exploratory objectives included evaluation of ORR (defined as PR or better) and clinical benefit rate [CBR; defined as ORR + minimal response (MR)], and estimation of duration of response (DOR) and PFS.
(§2) Patients received IV carfilzomib (as a 30-min infusion) in 28-day cycles (Fig. 1). All received carfilzomib 20 mg/m^2 on days 1 and 2 of cycle 1 and escalated to 27 mg/m^2 on day 8, 9, 15, and 16 of cycle 1. If tolerated, carfilzomib dose was increased to 56 mg/m^2 starting on day 1 of cycle 2 and continued on the same schedule (day 1, 2, 8, 9, 15, and 16 of each cycle). Oral or IV dexamethasone 8 mg/day was given on the same days as carfilzomib during cycles 1 and 2 but was optional in cycles 3 and beyond. IV hydration was given immediately prior to and following carfilzomib dosing during cycle 1 and at the investigator’s discretion in cycle 2 and higher; hydration consisted of 250 to 500 mL IV normal saline or other appropriate IV fluid.
(§3) Blood samples were collected for PK assessments for carfilzomib and its major metabolites (metabolites PR-389/M14, PR-413/M15, and PR-519/M16) (Fig. 1). Samples were collected at the following timepoints on cycle 1 day 16 (27 mg/m^2 dose) and cycle 2 day 1 (56 mg/m^2 dose) or on subsequent infusion days when the intended dose levels were administered: before infusion; 15 min after start of infusion; within 2 min before the end of infusion; and at 5, 15, and 30 min (±2 min for all timepoints ≤30 min), and 1, 2, and 4 h (±5 min for all timepoints >30 min) after the end of the infusion. Safety was assessed throughout the study and included the monitoring of AEs, clinical laboratory evaluations, electrocardiograms, and vital signs. Each evaluable patient’s response to treatment or progression over the course of the study was evaluated by the investigator according to the International Myeloma Working Group, International Uniform Response Criteria for Multiple Myeloma and European Group for Blood and Marrow Transplantation at day 1 of each cycle.
(§4) Safety was assessed for patients who received ≥1 dose of carfilzomib. AEs were graded using the National Cancer Institute Common Terminology Criteria for Adverse Events version 4.03 and mapped to preferred term and system organ class using the Medical Dictionary for Regulatory Activities (MedDRA). ORR defined as the proportion of patients for whom the best overall response was stringent complete response, complete response, very good PR, or PR, along with the associated 95% exact binomial CI (Clopper–Pearson method) was determined. CBR, defined as the proportion of patients with the best overall response of MR or better, was likewise determined along with the 95% exact binomial CI.

[3] = Plasma pharmacokinetics of carfilzomib and its major metabolites after 30-min IV infusion, normal renal function vs ESRD; type: in vivo, human; conditions: for AUC0−inf Geo mean ratio (90% CI), ESRD vs normal renal function / AUC0−last Geo mean ratio (90% CI), ESRD vs normal renal function: ANOVA of ln-transformed data, ESRD test, normal reference
Protocol: as §1, §2, §3
Descriptive statistics were provided for selected demographics, safety, and PK data, with all statistical summaries and analyses performed in SAS^Ⓡ version 9.1 or higher (SAS Institute Inc., Cary, NC). The primary PK analyses and other PK parameters were performed using the PK-evaluable population. Plasma PK parameters of carfilzomib and metabolites were computed in Phoenix WinNonlin^Ⓡ Enterprise version 5.2 or higher. To assess the effect of ESRD relative to normal renal function on PK parameters (AUC0−last and AUC0−inf), an analysis of variance (ANOVA) of the ln-transformed plasma PK parameters was performed, with renal impairment as a fixed effect. […]

[4] = tested on: patients with relapsed multiple myeloma; assay: Safety: adverse events (NCI CTCAE v4.03), discontinuations, deaths; type: in vivo, human; conditions: for treatment discontinuation due to disease progression: as of data cutoff
Protocol: as §2, §3, §4

[5] = tested on: relapsed multiple myeloma; conditions: carfilzomib 56 mg/m^2 infused for 30 min with or without dexamethasone, cited from earlier work
Protocol: The 50% ORR in the overall population was similar to those previously reported in trials of carfilzomib 56 mg/m^2 infused for 30 min with or without dexamethasone for relapsed multiple myeloma (50% in a phase I trial and 55% in a phase II trial). Together, the results of this study support current recommendations for carfilzomib that no starting dose adjustment is warranted for patients with baseline renal impairment including those with ESRD [8, 20].

[6] = total efficacy-evaluable population

CC(C)C[C@H](NC(=O)[C@H](CCc1ccccc1)NC(=O)CN1CCOCC1)C(=O)N[C@@H](Cc1ccccc1)C(=O)N[C@@H](CC(C)C)C(=O)[C@@]1(C)CO1 [carfilzomib]
half-life ([1]; IV administration at doses from 15 to 56 mg/m^2, patients): ≤ 60 min | dose excreted via urinary metabolites ([1]; within 24 h): approximately 25% | urinary and fecal excretion of the parent compound ([1]; within 24 h): 0.3 % of the total dose | patients with a PFS of ≥6 months ([2]; ESRD): 4 of 10 | Best overall response: Minimal response ([2]; ESRD, n = 10): 0 (0.0) n (%) | Best overall response: Complete response ([2]; ESRD, n = 10): 0 (0.0) n (%) | Best overall response: Not evaluable ([2]; ESRD, n = 10): 0 (0.0) n (%) | Best overall response: Partial response ([2]; ESRD, n = 10): 5 (50.0) n (%) | Best overall response: Progressive disease ([2]; ESRD, n = 10): 2 (20.0) n (%) | Best overall response: Stable disease ([2]; ESRD, n = 10): 2 (20.0) n (%) | Best overall response: Stringent complete response ([2]; ESRD, n = 10): 0 (0.0) n (%) | Best overall response: Very good partial response ([2]; ESRD, n = 10): 1 (10.0) n (%) | Clinical benefit rate (95% CI), minimal response or better ([2]; ESRD, n = 10): 60.0 (26.2–87.8) % | Overall response rate (95% CI), partial response or better ([2]; ESRD, n = 10): 60.0 (26.2–87.8) % | patients with a PFS of ≥6 months ([2]; normal renal function): 6 of 14 | Best overall response: Minimal response ([2]; normal renal function, n = 14): 1 (7.1) n (%) | Best overall response: Complete response ([2]; normal renal function, n = 14): 0 (0.0) n (%) | Best overall response: Partial response ([2]; normal renal function, n = 14): 3 (21.4) n (%) | Best overall response: Progressive disease ([2]; normal renal function, n = 14): 2 (14.3) n (%) | Best overall response: Stable disease ([2]; normal renal function, n = 14): 3 (21.4) n (%) | Best overall response: Stringent complete response ([2]; normal renal function, n = 14): 0 (0.0) n (%) | Best overall response: Very good partial response ([2]; normal renal function, n = 14): 3 (21.4) n (%) | Clinical benefit rate (95% CI), minimal response or better ([2]; normal renal function, n = 14): 50.0 (23.0–77.0) % | Overall response rate (95% CI), partial response or better ([2]; normal renal function, n = 14): 42.9 (17.7–71.1) % | patients with a PFS >12 months [2, 6]: 4 patients | patients with a PFS of ≥6 months [2, 6]: Ten | Best overall response: Minimal response ([2]; total, n = 24): 1 (4.2) n (%) | Best overall response: Complete response ([2]; total, n = 24): 0 (0.0) n (%) | Best overall response: Not evaluable ([2]; total, n = 24): 2 (8.3) n (%) | Best overall response: Partial response ([2]; total, n = 24): 8 (33.3) n (%) | Best overall response: Progressive disease ([2]; total, n = 24): 4 (16.7) n (%) | Best overall response: Stable disease ([2]; total, n = 24): 5 (20.8) n (%) | Best overall response: Stringent complete response ([2]; total, n = 24): 0 (0.0) n (%) | Best overall response: Very good partial response ([2]; total, n = 24): 4 (16.7) n (%) | Clinical benefit rate (95% CI), minimal response or better ([2]; total, n = 24): 54.2 (32.8–74.4) % | Overall response rate (95% CI), partial response or better ([2]; total, n = 24): 50.0 (29.1–70.9) % | AUC0−inf Geo mean ratio (90% CI), ESRD vs normal renal function ([3]; 27 mg/m^2): 138.09 (102.77–185.54) % | AUC0−last Geo mean ratio (90% CI), ESRD vs normal renal function ([3]; 27 mg/m^2): 139.72 (112.41–173.66) % | AUC0−inf Geo mean ratio (90% CI), ESRD vs normal renal function ([3]; 56 mg/m^2, cycle 2 day 1): 133.62 (70.93–251.73) % | AUC0−last Geo mean ratio (90% CI), ESRD vs normal renal function ([3]; 56 mg/m^2, cycle 2 day 1): 132.75 (70.60–249.63) % | change in mean AUC0−last and C max between 27 and 56 mg/m^2 ([3]; in vivo): dose-dependent increase | concentration decline in the first 15 min following the end of the infusion ([3]; in vivo): two orders of magnitude | mean terminal t 1/2 ([3]; in vivo): 24 to 72 min | time of peak concentrations after start of infusion ([3]; in vivo, iv): approximately 0.5 h | treatment discontinuation due to disease progression ([4]; ESRD): 36% | patients with treatment-related AEs that led to study discontinuation ([4]; in vivo): Four | treatment discontinuation due to disease progression ([4]; normal renal function): 20% | patients who died during the study ([4]; total, none considered related to carfilzomib treatment): Five | ORR ([5]; phase I trial): 50% | ORR ([5]; phase II trial): 55%
